Reference: ChEMBL document CHEMBL5154718, “Synthesis, biological evaluation, and molecular modeling simulations of new heterocyclic hybrids as multi-targeted anti-Alzheimer's agents” (Eur J Med Chem, 2022)
Active and inactive are the calls of the source. The rule behind the calls is not given here.

Columns and labels:
animal or person = assay type: functional; settings: Rattus norvegicus, Sprague-Dawley, Brain, route ip, time 1 hrs
in vivo = settings: Sprague-Dawley, rat, ip
Description: Toxicity in Sprague-Dawley rat assessed as median lethal dose administered intraperitoneally as single dose

in vitro = settings: human, HepG2 cells
Description: Cytotoxicity against human HepG2 cells assessed as cell growth inhibition incubated for 72 hrs by MTT assay

[1] = Metal chelating activity assessed as Fe2+-compound complex formation by measuring bathochromic shift at 30 to 60 uM by UV-visible spectrophotometry; settings: dose 30-60 µM
[2] = Metal chelating activity assessed as Cu2+-compound complex formation by measuring hyperchromic shift at 30 to 60 uM by UV-visible spectrophotometry; settings: dose 30-60 µM
[3] = Metal chelating activity assessed as Zn2+-compound complex formation by measuring bathochromic shift at 30 to 60 uM by UV-visible spectrophotometry; settings: dose 30-60 µM
[4] = Metal chelating activity assessed as Cu2+-compound complex formation by measuring bathochromic shift at 30 to 60 uM by UV-visible spectrophotometry; settings: dose 30-60 µM
[5] = Metal chelating activity assessed as Zn2+-compound complex formation by measuring hyperchromic shift at 30 to 60 uM by UV-visible spectrophotometry; settings: dose 30-60 µM
AChE = assay type: toxicity, cell-based; settings: human, probe acetylthiocholine iodide; read-out: Ratio IC50
[6] = biological target: T1, Amyloid-beta precursor protein (Homo sapiens, UniProt P05067); experiment: Inhibition of amyloid beta (1 to 42 ) (unknown origin) self aggregation at 25 uM measured after 3 hrs by ThT fluorescence assay relative to control
T1 sequence (P05067 whole entry): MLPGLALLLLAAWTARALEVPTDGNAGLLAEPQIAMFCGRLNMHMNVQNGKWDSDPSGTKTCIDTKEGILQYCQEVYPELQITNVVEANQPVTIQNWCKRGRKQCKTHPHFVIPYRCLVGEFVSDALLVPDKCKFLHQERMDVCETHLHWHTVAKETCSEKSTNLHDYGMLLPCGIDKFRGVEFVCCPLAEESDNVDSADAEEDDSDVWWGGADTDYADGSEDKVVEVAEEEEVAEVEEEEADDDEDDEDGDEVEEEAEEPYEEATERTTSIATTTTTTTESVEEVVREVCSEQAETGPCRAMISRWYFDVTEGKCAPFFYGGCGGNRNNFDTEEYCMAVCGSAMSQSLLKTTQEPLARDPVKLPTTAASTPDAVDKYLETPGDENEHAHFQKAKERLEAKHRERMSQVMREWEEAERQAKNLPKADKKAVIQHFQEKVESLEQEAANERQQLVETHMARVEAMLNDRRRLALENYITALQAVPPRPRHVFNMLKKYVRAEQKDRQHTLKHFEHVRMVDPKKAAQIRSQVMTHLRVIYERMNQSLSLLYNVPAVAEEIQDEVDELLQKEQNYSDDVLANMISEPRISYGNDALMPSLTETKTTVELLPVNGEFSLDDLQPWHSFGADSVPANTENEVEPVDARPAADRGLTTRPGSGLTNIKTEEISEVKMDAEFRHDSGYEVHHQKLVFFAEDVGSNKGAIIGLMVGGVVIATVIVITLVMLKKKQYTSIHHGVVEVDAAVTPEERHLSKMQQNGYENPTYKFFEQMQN

Cholinesterase = Cholinesterase (Homo sapiens, UniProt P06276)
Chain of Cholinesterase (P06276 whole entry): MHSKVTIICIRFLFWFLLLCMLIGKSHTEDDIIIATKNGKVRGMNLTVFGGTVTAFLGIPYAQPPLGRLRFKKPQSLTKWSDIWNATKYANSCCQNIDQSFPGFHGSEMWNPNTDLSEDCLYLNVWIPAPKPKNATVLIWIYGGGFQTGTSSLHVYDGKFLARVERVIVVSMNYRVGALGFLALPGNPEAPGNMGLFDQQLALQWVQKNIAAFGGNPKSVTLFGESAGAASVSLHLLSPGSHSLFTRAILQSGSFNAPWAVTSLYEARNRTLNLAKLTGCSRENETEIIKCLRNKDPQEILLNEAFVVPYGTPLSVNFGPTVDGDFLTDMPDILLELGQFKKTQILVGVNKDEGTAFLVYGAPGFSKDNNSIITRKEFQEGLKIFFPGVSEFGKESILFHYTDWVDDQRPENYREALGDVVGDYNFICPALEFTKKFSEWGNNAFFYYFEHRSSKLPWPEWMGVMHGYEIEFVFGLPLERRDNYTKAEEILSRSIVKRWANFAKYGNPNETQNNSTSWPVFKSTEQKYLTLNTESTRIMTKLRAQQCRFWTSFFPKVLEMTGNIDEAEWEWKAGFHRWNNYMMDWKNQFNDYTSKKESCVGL
Description: Inhibition of C-terminal 6His-tagged human recombinant BuChE (29 to 602 residues) using butyrylthiocholine iodide as substrate preincubated for 5 mins followed by substrate addition by Ellman's method

[7] = biological target: T1, Amyloid-beta precursor protein; experiment: Inhibition of amyloid beta (1 to 42 ) (unknown origin) self aggregation measured after 3 hrs by ThT fluorescence assay
[8] = Metal chelating activity assessed as Fe2+-compound complex formation by measuring hyperchromic shift at 30 to 60 uM by UV-visible spectrophotometry; settings: dose 30-60 µM
Acetylcholinesterase = Acetylcholinesterase (Homo sapiens, UniProt P22303)
Chain of Acetylcholinesterase (P22303 whole entry): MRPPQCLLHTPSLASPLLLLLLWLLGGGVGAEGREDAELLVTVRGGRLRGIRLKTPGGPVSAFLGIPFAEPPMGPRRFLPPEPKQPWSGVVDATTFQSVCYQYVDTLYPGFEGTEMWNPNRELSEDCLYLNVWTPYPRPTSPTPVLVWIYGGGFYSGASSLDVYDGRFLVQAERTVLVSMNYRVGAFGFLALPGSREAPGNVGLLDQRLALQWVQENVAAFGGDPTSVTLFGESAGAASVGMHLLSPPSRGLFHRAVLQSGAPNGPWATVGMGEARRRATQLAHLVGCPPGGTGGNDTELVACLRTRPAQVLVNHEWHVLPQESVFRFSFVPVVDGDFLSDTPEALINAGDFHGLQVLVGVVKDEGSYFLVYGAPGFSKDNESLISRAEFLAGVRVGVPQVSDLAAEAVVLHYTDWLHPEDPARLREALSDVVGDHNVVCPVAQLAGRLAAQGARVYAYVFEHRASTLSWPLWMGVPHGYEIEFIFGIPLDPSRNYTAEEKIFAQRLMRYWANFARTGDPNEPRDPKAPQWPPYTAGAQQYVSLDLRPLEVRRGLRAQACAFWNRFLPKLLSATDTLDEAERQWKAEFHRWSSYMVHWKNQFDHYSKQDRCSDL
Description: Inhibition of C-terminal 6His-tagged human recombinant AChE (32 to 614 residues) expressed in HEK293 cells using acetylthiocholine iodide as substrate preincubated for 5 mins followed by substrate addition by Ellman's method

[9] = Toxicity in Sprague-Dawley rat assessed as mortality up to 120 mg/kg, ip administered as single dose measured after 24 hrs; assay type: organism-based; settings: in vivo
[10] = Metal chelating activity assessed as Zn2+-compound complex formation by measuring hypochromic shift at 30 to 60 uM by UV-visible spectrophotometry; settings: dose 30-60 µM

In the case of `COc1cc2c(cc1OC)C(=O)C(CC1CCN(Cc3ccccc3)CC1)C2` (stereo unspecified) [DONEPEZIL], the inhibition in vivo at 10 mg/kg (animal or person) is reported as 46.5% and the LD50 (in vivo) is reported as 32.5 mg/kg.
In the case of `Cc1ccc2nc3c(c(N4CCCCC4)c2c1)CCCC3`, the IC50 at 72 h (in vitro) is reported as 37900 nM, the Activity [1] is reported as “Active” and the Activity [2] is reported as “Active”. The Activity [3] was “Active”, the Activity [4] was “Active” and the Activity [5] was “Active”. The selectivity ratio at 72 h (AChE) was 321, the inhibition in vivo at 10 mg/kg (animal or person) was 35% and the LD50 (in vivo) was 42 mg/kg. For the same compound, the inhibition [6] was 61.9%, the IC50 (Cholinesterase) was 1990 nM and the IC50 [7] was 6700 nM. For the same compound, the Activity [8] was “Active” and the IC50 (Acetylcholinesterase) was 118 nM.
With `O=C(CCN1CCN(c2ccccc2)CC1)Nc1n[nH]c2ncccc12` the inhibition [6] was 65.5%, the IC50 (Cholinesterase) was 782 nM and the IC50 [7] was 1980 nM. The IC50 (Acetylcholinesterase) was 230 nM.
With `O=C(CCN1CCOCC1)Nc1n[nH]c2ncccc12` the inhibition [6] was 71.8%, the IC50 (Cholinesterase) was 473 nM and the IC50 [7] was 2130 nM. The IC50 (Acetylcholinesterase) was 275 nM.
For `O=[N+]([O-])c1ccc2nc3c(c(Nc4[nH]nc5ncccc45)c2c1)CCCC3`, the IC50 at 72 h (in vitro) was 31300 nM, the Activity [2] was “Active” and the Activity [4] was “Active”. For the same compound, the Activity [5] was “Active”, the selectivity ratio at 72 h (AChE) was 105 and the inhibition [6] was 81.5%. The IC50 (Cholinesterase) was 429 nM, the IC50 [7] was 777 nM and the Activity [8] was “Active”. It also gave an IC50 (Acetylcholinesterase) of 299 nM.
With `O=C(CCN1CCN(Cc2ccccc2)CC1)Nc1n[nH]c2ncccc12` the IC50 at 72 h (in vitro) was 25000 nM, the Activity [9] was “Non-Toxic” and the Activity [4] was “Active”. For the same compound, the Activity [5] was “Active”, the selectivity ratio at 72 h (AChE) was 735 and the inhibition in vivo at 10 mg/kg (animal or person) was 35%. The inhibition [6] was 55.5%, the IC50 (Cholinesterase) was 3570 nM and the IC50 [7] was 13300 nM. For the same compound, the Activity [8] was “Active” and the IC50 (Acetylcholinesterase) was 34 nM.
`CN1CCN(CCC(=O)Nc2n[nH]c3ncccc23)CC1` showed an IC50 (Acetylcholinesterase) of 844 nM.
With `Nc1nn(-c2c3c(nc4ccc([N+](=O)[O-])cc24)CCCC3)c2ncccc12` the IC50 at 72 h (in vitro) was 44800 nM, the Activity [10] was “Active” and the selectivity ratio at 72 h (AChE) was 800. The inhibition [6] was 48%, the IC50 (Cholinesterase) was 5220 nM and the IC50 [7] was 31800 nM. The Activity [8] was “Active” and the IC50 (Acetylcholinesterase) was 56 nM.
With `O=[N+]([O-])c1ccc2nc3c(c(N4CCOCC4)c2c1)CCCC3` the IC50 (Acetylcholinesterase) was 1220 nM.
In the case of `O=C(CN1CCN(c2ccccc2)CC1)Nc1n[nH]c2ncccc12`, the IC50 (Acetylcholinesterase) is reported as 1950 nM.
With `Cc1ccc2nc3c(c(NCCN4CCN(Cc5ccccc5)CC4)c2c1)CCCC3` the IC50 (Acetylcholinesterase) was 6380 nM.
In the case of `Cc1ccc2nc3c(c(NCCN4CCOCC4)c2c1)CCCC3`, the IC50 at 72 h (in vitro) is reported as 9530 nM, the Activity [1] is reported as “Active” and the Activity [2] is reported as “Active”. The Activity [3] was “Active”, the Activity [4] was “Active” and the Activity [5] was “Active”. The selectivity ratio at 72 h (AChE) was 72.8, the inhibition in vivo at 10 mg/kg (animal or person) was 35% and the LD50 (in vivo) was 96.5 mg/kg. It also gave an inhibition [6] of 54.6%, an IC50 (Cholinesterase) of 3130 nM and an IC50 [7] of 15000 nM. The Activity [8] was “Active” and the IC50 (Acetylcholinesterase) was 131 nM.
For `O=C(CN1CCN(Cc2ccccc2)CC1)Nc1n[nH]c2ncccc12`, the inhibition [6] was 65%, the IC50 (Cholinesterase) was 2810 nM and the IC50 [7] was 5670 nM. For the same compound, the IC50 (Acetylcholinesterase) was 301 nM.
`O=C(Cn1nc2ncccc2c1NC(=O)Cn1nc2ncccc2c1NC(=O)CN1CCN(Cc2ccccc2)CC1)Nc1[nH]nc2ncccc12` gave an IC50 (Acetylcholinesterase) of 18000 nM.
